Data on one compound can be found in US7875638B2, “Synthesis of epothilones, intermediates thereto, analogues and uses thereof” (Sloan-Kettering Institute for Cancer Research, priority 2002, dated 2011).

Data set [1] has as its system CCRF-CEM/Taxol. Type of data set: cell-based, human. The note with it: Homo sapiens, CCRF-CEM, XTT assay following 72 h inhibition.
A short description of data set [2]: Octanol-water partition (POW) number by HPLC. Type of data set: physicochemical. The note with it: HPLC estimate, pH 7.4 buffer; read-out: Lipophilicity octanol/water partition (POW). As to the method:
Determination of partition of octanol-water (POW) number. An HPLC method is used to estimate octanol-water partition. An Agilent 1100 HPLC system is used with an eclipse XDB C18 column 4.6×250 mm with a mobile phase of 60% acetonitrile/40% 25 mM potassium phosphate buffer at pH 7.4 with a flow rate of 0.8 ml per min. and the eluent is monitored at 250 nm. The standards used are benzyl alcohol, acetophenone, benzophenone, naphthalene, diphenyl ether and dibenzyl with known POW of […] respectively. Sodium dichromate is used to evaluate time zero which is 2.5 min and the retention times for the standards are 3.9, 5.4, 10.6, 14, 18.7 and 19.8 min, respectively. The k value is calculated by the formula of k=(trt−t0)/t0. Linear regression of log k vs. log POW gives a straight line with r^2=0.966. This graph is used to evaluate the POW value of the epothilone analogs.

Data set [3] deals with CCRF-CEM. The note with it: for IC50: XTT assay following 72 h inhibition.
Experimental: (§1) Cytotoxicity Assays. In preparation for in vitro cytotoxicity assays, cells were cultured at an initial density 2-5×10^4 cells per milliliter. […] For both methods, the absorbance of each well was measured with a microplate reader (Power Wave XS, Bio-Tek, Winooski, Vt.).
(§2) A typical experiment involves culturing cells (e.g., CCRF-CEM) at an initial density of 2-5×10^4 cells per ml. […] For cells that were grown in suspension (such as CCRF-CEM and its sublines), cytotoxicitiy is measured by using the 2,-3-bis(2-methoxy-4-nitro-5-sulfophenyl)-5 carboxanilide)-2H terazodium hydroxide (XTT)-microculture tetrazonium method in duplicate in 96-well microtiter plates. For both methods, the absorbance of each well is measured with a microplate reader (EL-340, Bio-Tek, Burlington, Vt.). Each run entails six or seven concentrations of the tested drugs. Dose-effect relationship data are analyzed with the median-effect plot.
(§3) Cytotoxicity Assays: In preparation for in vitro cytotoxicity assays, cells were cultured at an initial density 2-5×10^4 cells per milliliter. […] For both methods, the absorbance of each well was measured with a microplate reader (Power Wave XS, Bio-Tek, Winooski, Vt.).
Data set [4] deals with human xenografts in nude mice, such as MX-1. On the set-up: Relative therapuetic index at MTD: key to the marks not given beside the values.
In data set [5] the test system is human mammary carcinoma MX-1 xenograft.
Data set [6] is described as follows: in vitro. The note with it: mouse, mouse plasma.
Experimental: (§4) Stability of epothilones in mouse and in human liver S9 fraction. The stability study was carried out with a fully automated HPLC system which consisted of a Prospekt-2 (Spark Holland, Netherlands) sample preparation system and an Agilent 1100 HPLC system. Briefly, the Prospekt 2 picked up a C8 extraction cartridge and washed it with acetonitrile and water. The Agilent autosampler, set at 37° C., picked up 20 μl of the sample, loaded it onto the cartridge, washed it with water, then the Prospekt-2 diverted the mobile phase stream through the extraction cartridge onto the analytical column, Reliance Stable Bond C8 4×80 mm with guard column (MacMod, Chadds Ford, Pa.) and the eluent was monitored at 250 nm. […] Sample preparation involved the addition of equal volumes of plasma to PBS for a total volume of 300-400 μl, filtered, and the addition of 0.5-2 μl of the substrate (20 mM) to achieve about 30-50 mAU at 250 nm in the HPLC analysis. For pooled human liver microsome S9 fraction (Xeno Tech, Lenex, Kans.), 20 μl (400 μg) or S9 fraction was mixed with 280 μl of PBS then proceeded as above. The sampling period was controlled by the autosampler and peak area data were collected to compare the rate of disappearance of the parent compound.
(§5) Stability of epothilones in mouse and in human liver S9 fraction: The stability study was carried out with a fully automated HPLC system which consisted of a Prospekt-2 (Spark Holland, Netherlands) sample preparation system and an Agilent 1100 HPLC system. Briefly, the Prospekt 2 picked up a C8 extraction cartridge and washed it with acetonitrile and water. The Agilent autosampler, set at 37° C., picked up 20 μl of the sample, loaded it onto the cartridge, washed it with water, then the Prospekt-2 diverted the mobile phase stream through the extraction cartridge onto the analytical column, Reliance Stable Bond C8 4×80 mm with guard column (MacMod, Chadds Ford, Pa.) and the eluent was monitored at 250 nm. […] Sample preparation involves the addition of equal volumes of plasma to PBS for a total volume of 400 μl, filtered, and the addition of 0.5-2 μl of the substrate (20 mM) to achieve about 30-50 mAU at 250 nm in the HPLC analysis. For pooled human liver microsome S9 fraction (Xeno Tech, Lenex, Kans.), 20 μl (400 μg) or S9 fraction was mixed with 280 μl of PBS then proceeds as above. The sampling period was controlled by the autosampler and peak area data were collected to compare the rate of disappearance of the parent compound.
Data set [7] can be described thus: in vitro. The note with it: human, pooled human liver S9 fraction.
Experimental: as §4, §5
The nature of data set [8]: Solubility in water.
Data set [9] concerns human mammary carcinoma MX-1 xenograft. Briefly: MX-1 xenograft in nude mice. The note with it: mouse, in vivo.
Data set [10] has as its system CCRF-CEM. The note with it: human, CCRF-CEM leukemic cells, 72 h.
Experimental: as §1, §2, §3

≈ marks a conversion by molar mass, not a printed value. Like-named read-outs stand apart in the source and are kept apart here.

As for `C/C1=C/C[C@@H](/C(C)=C/c2csc(C)n2)OC(=O)C[C@H](O)C(C)(C)C(=O)[C@H](C)[C@@H](O)[C@@H](C)/C=C/C1` [Compound 28, trans-9,10-dehydro-12,13-desoxyepothilone B], the IC50 is 0.0017 µM in data set [1] (Table 1-2, read-out: IC50 (μM), CCRF-CEM/Taxol); 0.0012 µM in [1] (Table 1-3, read-out: IC50, C/Taxol); 0.0012 µM in data set [1] (Table 1-4, read-out: IC50, CCRF-CEM/Taxol); 1.4 nM in [3] (Table 1-2); 0.9 nM in data set [3] (Table 1-3); 0.9 nM in [3] (Table 1-4). Also, in data set [10], the IC50 was 0.9 ± 0.4 nM. For the same compound, in data set [2], the chromatographic logP is 3.3. Moreover, the “IC50 in vitro (FIG. 94)” value in [3] was “sub-nanomolar”. Besides, in data set [3] (tumor cell lines of Table 1-2), the “Potency in direct comparison with dEpoB (1)” value is “nearly three times more potency”. In addition, in data set [4] (graded at maximal tolerated dose), the “Relative therapuetic index at MTD” value was “++++”. In addition, the “Antitumor effect in human solid tumor xenograft models” value in data set [4] (mouse, in vivo) is on record as “strongly suppressed tumor growth”. Moreover, in [4] (mouse, in vivo), the “Dose accomplishing complete suppression of tumor in a variety of xenografts” value is listed as 3 mg/kg. Besides, the “Efficacy compared with dEpoB” value in [4] (mouse, in vivo) was “three times more efficacious”. Besides, in data set [4] (mouse, in vivo), the “Maximal b.w. % drop without death” value is given as 29%. Also, the “Therapeutic dose regimen for Q2D 6 hr-iv infusion” value in data set [4] (mouse, in vivo, iv) was 3 to 4 mg/kg. Further, the “Enhancement of drug potency in xenograft experiments with MX-1 tumors” value in [5] is “ca. 10 fold”. The half-life was 84 ± 6 min in [6] and 294 ± 42 min in [7]. The “Water solubility relative to other epothilones” value in [8] is “greatly increased water solubility”. For the same compound, the solubility in data set [8] (water) worked out at 27 µg/mL (≈ 55.1 µM). In data set [9], the “Therapeutic effect on MX-1 xenograft” value is reported as “tumor disappearance”.
